These results are taken from patent publication US20230002324A1, “NAPHTHOQUINONE DERIVATIVES FOR TREATMENT OF OXIDATIVE STRESS DISORDERS” (PTC THERAPEUTICS, INC., priority 2019, published 2023).

Like-named read-outs stand apart in the source and are kept apart here. Some results are limits rather than exact numbers.

The subject of this experiment is Q7 cells (ST HDH Q7/7; immortalized mouse striatal cells). The experiment in a line: Q7 Cystine Deprivation cell survival (rescue) assay. It is filed as cell-based. As to conditions: 18 h, read-out: Q7 Cystine Deprivation Survival EC50. An excerpt:
In neuronal cells excess extracellular glutamate inhibits the cystine/glutamate antiporter leading to intracellular cysteine depletion, GSH depletion, reactive oxygen species (ROS) production and cell death, a phenomenon termed oxidative glutamate toxicity, oxytosis, or ferroptosis. […] Q7 cells (ST HDH Q7/7; immortalized mouse striatal cells) challenged with cystine-free media or the selective, irreversible GPX4 inhibitor, methyl (1S,3R)-2-(2-chloroacetyl)-1-(4-(methoxycarbonyl)phenyl)-2,3,4,9-tetrahydro-1H-pyrido[3,4-b]indole-3-carboxylate (hereafter referred to as RSL3), recapitulate this phenotype, as do normal human fibroblasts (NHF) challenged with RSL3. An initial screen was performed to identify compounds effective in rescuing Q7 and/or NHF cells from death resulting from cystine deprivation or RSL3 challenge. This method is further described in Yonezawa et al., J. Neurochem 67, 566-573 (1996), Li et al., J Neurosci., 23, 5816-5826 (2003), Yang and Stockwell, Chem Biol., 15: 234-45 (2008), and Yang et al., Cell 156, 317-331 (2014). See also Hinman A, Holst C R, Latham J C, et al. Vitamin E hydroquinone is an endogenous regulator of ferroptosis via redox control of 15-lipoxygenase. PLoS One. 2018; 13(8):e0201369. Published 2018 Aug. 15. doi:10.1371/journal.pone.0201369; and Kahn-Kirby A H, Amagata A, Maeder C I, et al. Targeting ferroptosis: A novel therapeutic strategy for the treatment of mitochondrial disease-related epilepsy. PLoS One. 2019; 14(3):e0214250. Published 2019 Mar. 28. doi:10.1371/journal.pone.0214250.
DMEM (Catalog no. 11995-040), DMEM without Cystine (Catalog no. 21013-024), DMEM without Glucose (Catalog A1443001), PBS (Phosphate buffered saline), Penicillin-streptomycin mix, L-Glutamine, Glucose, Phenol Red, and Pyruvate were purchased from ThermoFisher Scientific (Gibco). Fetal Bovine Serum was obtained from Mediatech, Inc., or Sigma Aldrich. Mouse striatum derived ST HDH Q7/7 (Q7) and normal human skin fibroblast (NHF, product number GM21811) cells were obtained from the Coriell Institute. Methionine and Vitamin K2 were purchased from Sigma Aldrich. RSL3 was synthesized as previously described (see e.g. US Patent Publication US2010/0081654). Cell Titer Glo 2.0 was purchased from Promega. Q7 cell culture medium (Q7 growth medium) was made by combining 50 mL Fetal Bovine Serum, 100 U/mL penicillin, and 100 microgram/mL streptomycin; DMEM was added to make the volume up to 500 mL. Assay medium for the Cystine Deprivation assay was prepared by combining 50 mL Fetal Bovine Serum, 100 U/mL penicillin, 100 microgram/mL streptomycin, 4 mM L-Glutamine, 1 mM Pyruvate and 30 mg/L Methionine; DMEM without Cystine was added to make the volume up to 500 mL. NHF cell culture medium (NHF growth medium) was made by combining 50 mL Fetal Bovine Serum, 100 U/mL penicillin, 100 microgram/mL streptomycin, 2.8 mL 20% Glucose solution (final concentration 6 mM), L-glutamine (final concentration 2 mM), phenol red (final concentration 15 mg/L); DMEM without Glucose was added to make the volume up to 500 mL. Assay medium for the RSL3 challenge assay was identical to Growth medium. While not in use during the course of the experiments, these solutions were stored at 4° C. The cells were grown in 150-cm^2 tissue culture-treated flasks. Every third or fourth day, the cells were sub-cultured by trypsinization and re-seeded at a cell density of 600,000 (Q7) or 300,000 (NHF) cells per flask.
Q7 or NHF cells were cultured routinely as described herein. For 384-well cell survival assays, cells were seeded in clear bottom, black wall 384-well tissue culture-treated polystyrene plates by re-suspending a cell suspension at a density of 50,000 cells/mL in growth medium, then dispensing 60 microliters of cell suspension per well using either an electronic multichannel pipette or a Multidrop™ Combi Reagent Dispenser (ThermoFisher Scientific), corresponding to 3,000 cells/well. […]

[1] abbreviates: Q7 cells, cystine-free medium, Cell Titer Glo, 50% relative viability vs Vitamin K2 (1 micromolar).

In the case of `CC1=C(Cc2cc(C(F)(F)F)c(F)cn2)C(=O)c2ccccc2C1=O` [Example 2, 2-((5-fluoro-4-(trifluoromethyl)pyridin-2-yl)methyl)-3-methylnaphthalene-1,4-dione], the EC50 under setting [1] was less than 50 nM.

Consider `CC1=C(Cc2cc(C)c(F)cn2)C(=O)c2ccccc2C1=O` [Example 3, 2-((5-fluoro-4-methylpyridin-2-yl)methyl)-3-methylnaphthalene-1,4-dione], for which, under setting [1], the EC50 was less than 50 nM.

As for `CC1=C(Cc2cc(C)c(C(F)(F)F)cn2)C(=O)c2ccccc2C1=O` [Example 4, 2-methyl-3-((4-methyl-5-(trifluoromethyl)pyridin-2-yl)methyl)naphthalene-1,4-dione], under setting [1], the EC50 is less than 50 nM.

On to `CC1=C(Cc2ccc(C)nn2)C(=O)c2ccccc2C1=O` [Example 5, 2-methyl-3-((6-methylpyridazin-3-yl)methyl)naphthalene-1,4-dione], for which the EC50 under setting [1] is less than 50 nM.

For the molecule `CC1=C(Cc2ccc(C)cn2)C(=O)c2ccccc2C1=O` [Example 7, 2-methyl-3-((5-methylpyridin-2-yl)methyl)naphthalene-1,4-dione], under setting [1], the EC50 was less than 50 nM.

Consider `CC1=C(Cc2cccc(C(F)(F)F)n2)C(=O)c2ccccc2C1=O` [Example 8, 2-methyl-3-((6-(trifluoromethyl)pyridin-2-yl)methyl)naphthalene-1,4-dione], for which the EC50 under setting [1] is less than 50 nM.

Consider `CC1=C(Cc2ccc(C(F)(F)F)nn2)C(=O)c2ccccc2C1=O` [Example 10, 2-methyl-3-((6-(trifluoromethyl)pyridazin-3-yl)methyl)naphthalene-1,4-dione], for which the EC50 under setting [1] was less than 50 nM.

Regarding `CC1=C(Cc2cc(C(F)(F)F)cnn2)C(=O)c2ccccc2C1=O` [Example 11, 2-methyl-3-((5-(trifluoromethyl)pyridazin-3-yl)methyl)naphthalene-1,4-dione], the EC50 under setting [1] is less than 50 nM.

For `CC1=C(Cc2cccnn2)C(=O)c2ccccc2C1=O` [Example 12, 2-methyl-3-(pyridazin-3-ylmethyl)naphthalene-1,4-dione], under setting [1], the concentration giving a half-maximal response (EC50) was less than 50 nM.

As for `CC1=C(Cc2cc(C)c(C)nn2)C(=O)c2ccccc2C1=O` [Example 13, 2-((5,6-dimethylpyridazin-3-yl)methyl)-3-methylnaphthalene-1,4-dione], the EC50 under setting [1] is less than 50 nM.

As to `CC1=C(Cc2ccc(C(N)=O)nn2)C(=O)c2ccccc2C1=O` [Example 14, 6-((3-methyl-1,4-dioxo-1,4-dihydronaphthalen-2-yl)methyl)pyridazine-3-carboxamide], the EC50 under setting [1] is less than 50 nM.

Regarding `CC1=C(Cc2cc(C)cnn2)C(=O)c2ccccc2C1=O` [Example 15, 2-methyl-3-((5-methylpyridazin-3-yl)methyl)naphthalene-1,4-dione], the EC50 under setting [1] is less than 50 nM.

On to `CCOc1cnnc(CC2=C(C)C(=O)c3ccccc3C2=O)c1` [Example 16, 2-((5-ethoxypyridazin-3-yl)methyl)-3-methylnaphthalene-1,4-dione], for which, under setting [1], the EC50 was less than 50 nM.

With `COc1nnc(CC2=C(C)C(=O)c3ccccc3C2=O)cc1C(F)(F)F` [Example 17, 2-((6-methoxy-5-(trifluoromethyl)pyridazin-3-yl)methyl)-3-methylnaphthalene-1,4-dione], the EC50 under setting [1] was less than 50 nM.

Turning to `COc1nnc(CC2=C(C)C(=O)c3ccccc3C2=O)cc1C` [Example 18, 2-((6-methoxy-5-methylpyridazin-3-yl)methyl)-3-methylnaphthalene-1,4-dione], the EC50 under setting [1] is greater than 1000 nM.

With `CC1=C(Cc2ncc(C(F)(F)F)cn2)C(=O)c2ccccc2C1=O` [Example 19, 2-methyl-3-((5-(trifluoromethyl)pyrimidin-2-yl)methyl)naphthalene-1,4-dione], the EC50 under setting [1] was less than 50 nM.

As to `O=C1C=C(Cc2ccc(C(F)(F)F)cn2)C(=O)c2ccccc21` [Example 25, 2-((5-(trifluoromethyl)pyridin-2-yl)methyl)naphthalene-1,4-dione], the EC50 under setting [1] lay within 250 to 1000 nM.

On to `CC(C)CCC1=C(Cc2ccc(C(F)(F)F)cn2)C(=O)c2ccccc2C1=O` [Example 34, 2-isopentyl-3-((5-(trifluoromethyl)pyridin-2-yl)methyl)naphthalene-1,4-dione], for which, under setting [1], the EC50 lay in the range of 50 to 250 nM.

As to `COc1ccc2c(c1)C(=O)C(Cc1ccc(C(F)(F)F)cn1)=C(C)C2=O` [Example 36, 6-methoxy-2-methyl-3-((5-(trifluoromethyl)pyridin-2-yl)methyl)naphthalene-1,4-dione], the EC50 under setting [1] was less than 50 nM.

`COc1ccc2c(c1)C(=O)C(C)=C(Cc1ccc(C(F)(F)F)cn1)C2=O` [Example 37, 6-methoxy-3-methyl-2-((5-(trifluoromethyl)pyridin-2-yl)methyl)naphthalene-1,4-dione]: the EC50 under setting [1] is less than 50 nM.

For the molecule `Cc1ccc(CC2=C(C3CC3)C(=O)c3ccccc3C2=O)nc1` [Example 38, 2-cyclopropyl-3-((5-methylpyridin-2-yl)methyl)naphthalene-1,4-dione], under setting [1], the EC50 was less than 50 nM.

As to `COc1cccc2c1C(=O)C(C)=C(Cc1ccc(C(F)(F)F)cn1)C2=O` [Example 40, 5-methoxy-3-methyl-2-((5-(trifluoromethyl)pyridin-2-yl)methyl)naphthalene-1,4-dione], the EC50 under setting [1] is less than 50 nM.

For `COc1cc2c(cc1OC)C(=O)C(Cc1ccc(C(F)(F)F)cn1)=C(C)C2=O` [Example 41, 6,7-dimethoxy-2-methyl-3-((5-(trifluoromethyl)pyridin-2-yl)methyl)naphthalene-1,4-dione], the EC50 is less than 50 nM.

On to `CC1=C(Cc2ccc(C(F)(F)F)cn2)C(=O)c2cc(F)ccc2C1=O` [Example 45, 6-fluoro-2-methyl-3-((5-(trifluoromethyl)pyridin-2-yl)methyl)naphthalene-1,4-dione], for which the EC50 under setting [1] was less than 50 nM.

Take `CC1=C(Cc2ccc(C(F)(F)F)cn2)C(=O)c2cccc(F)c2C1=O` [Example 46, 5-fluoro-3-methyl-2-((5-(trifluoromethyl)pyridin-2-yl)methyl)naphthalene-1,4-dione]: the EC50 under setting [1] is less than 50 nM.

In the case of `CCCC1=C(Cc2ccc(Cl)cn2)C(=O)c2ccccc2C1=O` [Example 106, 2-((5-chloropyridin-2-yl)methyl)-3-propylnaphthalene-1,4-dione], the EC50 under setting [1] is less than 50 nM.

With `CCCC1=C(Cc2ccc(C(F)(F)F)nn2)C(=O)c2ccccc2C1=O` [Example 107, 2-propyl-3-((6-(trifluoromethyl)pyridazin-3-yl)methyl)naphthalene-1,4-dione], the EC50 under setting [1] was less than 50 nM.

Consider `CCCC1=C(Cc2ncc(C(F)(F)F)cc2F)C(=O)c2ccccc2C1=O` [Example 108, 2-((3-fluoro-5-(trifluoromethyl)pyridin-2-yl)methyl)-3-propylnaphthalene-1,4-dione], for which the EC50 under setting [1] lay within 50 to 250 nM.

Consider `CCCC1=C(Cc2cc(C#N)c(F)cn2)C(=O)c2ccccc2C1=O` [Example 110, 2-((1,4-dioxo-3-propyl-1,4-dihydronaphthalen-2-yl)methyl)-5-fluoroisonicotinonitrile], for which the EC50 under setting [1] was less than 50 nM.

For `CCCC1=C(Cc2ncc(F)cc2C)C(=O)c2ccccc2C1=O` [Example 111, 2-((5-fluoro-3-methylpyridin-2-yl)methyl)-3-propylnaphthalene-1,4-dione], under setting [1], the EC50 was in the range of 50 to 250 nM.

Consider `CCCC1=C(Cc2ccc(F)c(C#N)n2)C(=O)c2ccccc2C1=O` [Example 112, 6-((1,4-dioxo-3-propyl-1,4-dihydronaphthalen-2-yl)methyl)-3-fluoropicolinonitrile], for which, under setting [1], the EC50 is less than 50 nM.

For orientation: EC50 means the midpoint of the concentration-response curve.
